The structures appear in SMILES notation. ≈ marks a conversion by molar mass, not a printed value.

Series [1] has as its system human promonocytic HL-CZ cells. Briefly: Cell viability assay (trypan blue), HL-CZ cells. The following applies: 48 hours, trypan blue staining.
Another series relates to BHK-21 cells. Briefly: Cell viability assay (trypan blue), BHK-21 cells. The following applies: BHK-21 cells, 48 hours, trypan blue staining.
The nature of series [2]: Cell viability assay (trypan blue), BHK-21 cells. Conditions: hamster, CC50 BHK-21, BHK-21 cells, trypan blue staining.
Series [3] in a line: Cell viability assay (trypan blue), HL-CZ cells. Conditions: human, CC50 HL-CZ, trypan blue staining.
The test system of series [4] is JEV. Briefly: Virucidal activity assay. Type of series: cell-based. Conditions: Japanese encephalitis virus; JEV 10^5 pfu preincubated 60 min at 4°C, 1000-fold dilution, residual infectivity on BHK-21. As for the experimental part: Virucidal assay was based on prior reports. […] A 1000-fold dilution of each extract/virus or compound/virus mixture was added onto BHK-21 cell monolayer in 6-well plates.

Series [5] relates to JEV. Briefly: Plaque reduction and time-of-addition assay in BHK-21 cells. The following applies: Japanese encephalitis virus.
The test system of series [6] is JEV. Briefly: Virus yield in JEV-infected HL-CZ cells by plaque assay. The following applies: 10 μg/mL, JEV MOI 0.5, after 24 h incubation.
Series [7] concerns virulent JEV strain Beijing-1. Briefly: Mouse protection assay against lethal JEV challenge. It counts as in vivo. Conditions: BALB/c mice, i.c. JEV 1 × 10^5 pfu, 1 mg/kg i.c. at 2, 24, 48 h after infection. The protocol: Groups (n = 10) of 2-week-old BALB/c mice were intracerebrally infected with 1 × 10^5 pfu of virulent JEV strain Beijing-1 then underwent three intracerebral treatments with 30 μg/100 μL of I. indigotica extract or marker compound (1 mg/kg of body weight) using 100 μL syringes at 2, 24, and 48 h after infection. Two additional groups were infected with JEV and received PBS or DMSO (0.05%) treatment as solvent controls. Survival rates were monitored every day for one week.

In series [8] the test system is JEV. Briefly: Virus attachment assay (4°C, BHK-21 monolayer). It counts as cell-based. The following applies: Japanese encephalitis virus; JEV 120 pfu, 4°C 1 h on BHK-21 monolayer, residual infectivity by plaque assay. The protocol:
After 3-day incubation at 37°C in a 5% CO2 incubator, plaques were stained, as described in plaque assay.

[9] abbreviates: BHK-21, 1 h, read-out: IC50 of posttreatment.
Where [10] appears, read: BHK-21, 1 h, read-out: IC50 of simultaneous treatment.
[11] abbreviates: BHK-21, read-out: IC50 of pretreatment.

As to `O=c1[nH]c2ccccc2o1` [2-Benzoxazolinone, 2-benzoxazolinone], the “CC50 HL-CZ” value in series [1] amounted to 67.33 ± 10.2 µg/mL (≈ 498 µM). Moreover, the “CC50 BHK-21” value in the series with BHK-21 cells worked out at 19.92 ± 1.57 µg/mL (≈ 147 µM). In series [2], this molecule had a CC50 at 48 h of under 25 µg/mL.

For the molecule `Nc1ncnc2c1ncn2[C@@H]1O[C@H](CO)[C@@H](O)[C@H]1O` [Adenosine, adenosine], in series [1], the “CC50 HL-CZ” value worked out at 15.38 ± 1.05 µg/mL (≈ 57.6 µM). In addition, the CC50 at 48 h in series [3] and in series [2] was under 25 µg/mL throughout. Also, in the series with BHK-21 cells, the “CC50 BHK-21” value was found to be 24.10 ± 2.57 µg/mL (≈ 90.2 µM).

Take `C=C(C)[C@@H]1CC[C@]2(CO)CC[C@]3(C)[C@H](CC[C@@H]4[C@@]5(C)CC[C@H](O)C(C)(C)[C@@H]5CC[C@]43C)[C@@H]12` [Betulin, betulin]: the “CC50 HL-CZ” value in [1] is 2.10 ± 0.78 µg/mL (≈ 4.74 µM). In the series with BHK-21 cells, the “CC50 BHK-21” value is 13.30 ± 2.58 µg/mL (≈ 30 µM). The same molecule had a CC50 at 48 h in [2] of under 25 µg/mL.

Take `O=C1/C(=C2\Nc3ccccc3C2=O)Nc2ccccc21` [Indigo, indigo]: the IC50 in the series on JEV [4] was 3.03 ± 3.18 µg/mL (≈ 11.6 µM); with JEV [5] (setting [9]), over 50 µg/mL; with JEV [5] (setting [10]), 37.5 ± 3.18 µg/mL (≈ 143 µM); with JEV [5] (setting [11]) it was 11.79 ± 0.1 µg/mL (≈ 45 µM); with JEV [8], 5.15 ± 0.18 µg/mL (≈ 19.6 µM). The molecule also showed a CC50 at 48 h in [3] of 99.41 ± 0.54 µg/mL (≈ 379 µM). In the series on JEV [6], the virus yield reduced result is recorded as “approximately 40%”. Also, the “CC50 BHK-21” value in the series on BHK-21 cells was determined as 86.88 ± 3.72 µg/mL (≈ 331 µM); in the series with BHK-21 cells (listed as indigo), 26.88 µg/mL (≈ 102 µM). Besides, the “Survival rate on Day 6 after infection” value in [7] was 50%.

On to `O=C1Nc2ccccc2/C1=C1/Nc2ccccc2C1=O` [Indirubin, indirubin], for which the IC50 in the series on JEV [4] was 0.47 ± 2.83 µg/mL (≈ 1.79 µM); in the series with JEV [5] (setting [9]), over 50 µg/mL; with JEV [5] (setting [10]), 13.7 ± 2.83 µg/mL (≈ 52.2 µM); in the series on JEV [5] (setting [11]), 23.5 ± 0.89 µg/mL (≈ 89.6 µM); with JEV [8], 5.1 ± 1.32 µg/mL (≈ 19.4 µM). Further, the CC50 at 48 h came to 64.9 ± 1.08 µg/mL (≈ 247 µM) in series [3] and 57.5 µg/mL (≈ 219 µM) in series [2]. The virus yield reduced entry in the series with JEV [6] is “approximately 40%”. For the same molecule, the “CC50 BHK-21” value with BHK-21 cells is over 100 µg/mL. The “Survival rate on Day 6 after infection” value in series [7] was 70%.

Take `C=C(C)[C@@H]1CC[C@]2(C)CC[C@]3(C)[C@H](CC[C@@H]4[C@@]5(C)CC[C@H](O)C(C)(C)[C@@H]5CC[C@]43C)[C@@H]12` [Lupeol, lupeol]: in series [1], the “CC50 HL-CZ” value is 3.44 ± 1.17 µg/mL (≈ 8.06 µM). In addition, the “CC50 BHK-21” value with BHK-21 cells came to 9.53 ± 1.32 µg/mL (≈ 22.3 µM).

Turning to `O=C1c2ccccc2-n2c1nc1ccccc1c2=O` [Tryptathrin, tryptanthrin], the “CC50 HL-CZ” value in [1] was determined as 1.74 ± 0.34 µg/mL (≈ 7.01 µM). The “CC50 BHK-21” value in the series with BHK-21 cells was 4.57 ± 0.26 µg/mL (≈ 18.4 µM).

The term CC50 denotes the concentration giving 50% cytotoxicity. As a reminder, the IC50 is the point on the concentration scale where inhibition reaches its midpoint.
